Test results published in ChEMBL document CHEMBL3991601, “The target landscape of clinical kinase drugs” (Science, 2017).
Where a name gives a salt, the structure may show the parent alone. The source made the active and inactive calls.

Assays:
[1] = biological target: Activated CDC42 kinase 1 (Homo sapiens, UniProt Q07912)
[2] = biological target: T1, ADP/ATP translocase 2 (Homo sapiens, UniProt P05141)
T1 sequence (P05141 whole entry): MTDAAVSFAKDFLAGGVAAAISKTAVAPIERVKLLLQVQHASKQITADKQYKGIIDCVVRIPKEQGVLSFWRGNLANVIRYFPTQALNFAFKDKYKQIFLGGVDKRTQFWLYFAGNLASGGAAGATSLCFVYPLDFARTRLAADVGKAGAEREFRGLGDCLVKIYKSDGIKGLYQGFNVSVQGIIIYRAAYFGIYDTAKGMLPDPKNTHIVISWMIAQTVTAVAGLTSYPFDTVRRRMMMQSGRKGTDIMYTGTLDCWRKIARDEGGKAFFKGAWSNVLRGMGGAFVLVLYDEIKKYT

[3] = biological target: T2, Serine/threonine-protein kinase Nek2 (Homo sapiens, UniProt P51955)
T2 sequence (P51955 whole entry): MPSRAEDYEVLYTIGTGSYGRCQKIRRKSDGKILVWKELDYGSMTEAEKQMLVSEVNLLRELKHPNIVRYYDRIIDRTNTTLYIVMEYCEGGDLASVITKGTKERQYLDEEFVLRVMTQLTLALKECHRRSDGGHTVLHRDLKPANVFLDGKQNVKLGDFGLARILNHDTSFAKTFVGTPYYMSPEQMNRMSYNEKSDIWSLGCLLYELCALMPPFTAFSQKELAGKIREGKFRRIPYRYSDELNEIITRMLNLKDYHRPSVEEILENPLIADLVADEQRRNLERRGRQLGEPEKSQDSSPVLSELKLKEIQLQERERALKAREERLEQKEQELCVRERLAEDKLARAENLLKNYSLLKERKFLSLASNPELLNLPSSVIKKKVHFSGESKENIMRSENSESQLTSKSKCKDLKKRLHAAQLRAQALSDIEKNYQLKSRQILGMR

[4] = biological target: GTP-binding protein 4 (Homo sapiens, UniProt Q9BZE4)
[5] = biological target: GTP-binding nuclear protein Ran (Homo sapiens, UniProt P62826)
[6] = biological target: Serine/threonine-protein kinase N1 (Homo sapiens, UniProt Q16512)
Chain of Serine/threonine-protein kinase N1 (Q16512 whole entry, canonical isoform): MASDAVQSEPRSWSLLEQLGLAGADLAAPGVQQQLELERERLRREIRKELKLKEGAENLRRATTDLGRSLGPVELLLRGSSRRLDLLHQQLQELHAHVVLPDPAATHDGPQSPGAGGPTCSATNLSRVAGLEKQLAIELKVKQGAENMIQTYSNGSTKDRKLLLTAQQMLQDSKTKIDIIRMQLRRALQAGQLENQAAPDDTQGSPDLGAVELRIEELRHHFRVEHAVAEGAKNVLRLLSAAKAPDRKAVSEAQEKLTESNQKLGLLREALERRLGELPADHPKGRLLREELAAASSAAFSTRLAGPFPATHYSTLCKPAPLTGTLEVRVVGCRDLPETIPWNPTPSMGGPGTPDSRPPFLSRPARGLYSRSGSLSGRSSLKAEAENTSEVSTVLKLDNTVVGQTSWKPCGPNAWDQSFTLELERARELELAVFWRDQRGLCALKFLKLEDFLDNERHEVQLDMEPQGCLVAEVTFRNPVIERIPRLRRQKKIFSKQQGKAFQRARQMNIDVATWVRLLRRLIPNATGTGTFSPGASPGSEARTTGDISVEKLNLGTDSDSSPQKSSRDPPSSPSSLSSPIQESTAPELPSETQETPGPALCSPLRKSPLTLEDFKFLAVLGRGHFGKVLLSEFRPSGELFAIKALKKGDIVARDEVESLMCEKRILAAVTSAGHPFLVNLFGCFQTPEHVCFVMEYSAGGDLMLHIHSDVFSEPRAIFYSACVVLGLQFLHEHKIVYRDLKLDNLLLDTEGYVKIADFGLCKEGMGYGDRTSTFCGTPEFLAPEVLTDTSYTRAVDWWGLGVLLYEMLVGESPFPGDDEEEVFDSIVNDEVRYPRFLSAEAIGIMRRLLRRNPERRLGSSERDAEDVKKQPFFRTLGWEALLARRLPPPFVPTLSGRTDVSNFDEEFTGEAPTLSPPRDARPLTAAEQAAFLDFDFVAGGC

[7] = biological target: T3, Phosphorylase b kinase gamma catalytic chain, liver/testis isoform (Homo sapiens, UniProt P15735)
T3 sequence (P15735 whole entry): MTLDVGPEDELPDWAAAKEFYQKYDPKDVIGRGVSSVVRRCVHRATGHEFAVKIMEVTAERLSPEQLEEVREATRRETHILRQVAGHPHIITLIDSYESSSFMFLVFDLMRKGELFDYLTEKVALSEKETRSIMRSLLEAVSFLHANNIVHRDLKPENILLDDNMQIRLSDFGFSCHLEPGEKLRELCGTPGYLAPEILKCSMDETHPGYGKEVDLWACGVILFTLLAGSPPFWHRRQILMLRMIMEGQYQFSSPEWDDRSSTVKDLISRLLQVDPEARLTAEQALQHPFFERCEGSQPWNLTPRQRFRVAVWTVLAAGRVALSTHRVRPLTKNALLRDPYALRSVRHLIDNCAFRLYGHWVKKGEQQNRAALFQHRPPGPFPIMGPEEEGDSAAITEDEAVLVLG

[8] = biological target: T4, TGF-beta receptor type-1 (Homo sapiens, UniProt P36897)
T4 sequence (P36897 whole entry): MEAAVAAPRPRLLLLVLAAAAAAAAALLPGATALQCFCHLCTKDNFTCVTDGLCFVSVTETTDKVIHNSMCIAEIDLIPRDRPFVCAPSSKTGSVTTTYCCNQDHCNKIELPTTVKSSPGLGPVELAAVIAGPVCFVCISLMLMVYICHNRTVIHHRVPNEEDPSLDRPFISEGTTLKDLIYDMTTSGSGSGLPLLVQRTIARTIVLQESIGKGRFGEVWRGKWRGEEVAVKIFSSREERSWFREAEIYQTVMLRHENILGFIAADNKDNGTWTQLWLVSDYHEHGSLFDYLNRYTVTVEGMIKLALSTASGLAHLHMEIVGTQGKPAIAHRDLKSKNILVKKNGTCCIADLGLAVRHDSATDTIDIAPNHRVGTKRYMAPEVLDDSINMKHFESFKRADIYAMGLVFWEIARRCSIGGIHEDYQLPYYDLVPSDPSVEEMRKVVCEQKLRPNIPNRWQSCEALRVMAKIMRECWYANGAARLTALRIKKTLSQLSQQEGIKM

[9] = biological target: Midasin (Homo sapiens, UniProt Q9NU22)
[10] = biological target: Cyclin-dependent kinase 13 (Homo sapiens, UniProt Q14004)
Chain of Cyclin-dependent kinase 13 (Q14004 whole entry, the tested form may be a part): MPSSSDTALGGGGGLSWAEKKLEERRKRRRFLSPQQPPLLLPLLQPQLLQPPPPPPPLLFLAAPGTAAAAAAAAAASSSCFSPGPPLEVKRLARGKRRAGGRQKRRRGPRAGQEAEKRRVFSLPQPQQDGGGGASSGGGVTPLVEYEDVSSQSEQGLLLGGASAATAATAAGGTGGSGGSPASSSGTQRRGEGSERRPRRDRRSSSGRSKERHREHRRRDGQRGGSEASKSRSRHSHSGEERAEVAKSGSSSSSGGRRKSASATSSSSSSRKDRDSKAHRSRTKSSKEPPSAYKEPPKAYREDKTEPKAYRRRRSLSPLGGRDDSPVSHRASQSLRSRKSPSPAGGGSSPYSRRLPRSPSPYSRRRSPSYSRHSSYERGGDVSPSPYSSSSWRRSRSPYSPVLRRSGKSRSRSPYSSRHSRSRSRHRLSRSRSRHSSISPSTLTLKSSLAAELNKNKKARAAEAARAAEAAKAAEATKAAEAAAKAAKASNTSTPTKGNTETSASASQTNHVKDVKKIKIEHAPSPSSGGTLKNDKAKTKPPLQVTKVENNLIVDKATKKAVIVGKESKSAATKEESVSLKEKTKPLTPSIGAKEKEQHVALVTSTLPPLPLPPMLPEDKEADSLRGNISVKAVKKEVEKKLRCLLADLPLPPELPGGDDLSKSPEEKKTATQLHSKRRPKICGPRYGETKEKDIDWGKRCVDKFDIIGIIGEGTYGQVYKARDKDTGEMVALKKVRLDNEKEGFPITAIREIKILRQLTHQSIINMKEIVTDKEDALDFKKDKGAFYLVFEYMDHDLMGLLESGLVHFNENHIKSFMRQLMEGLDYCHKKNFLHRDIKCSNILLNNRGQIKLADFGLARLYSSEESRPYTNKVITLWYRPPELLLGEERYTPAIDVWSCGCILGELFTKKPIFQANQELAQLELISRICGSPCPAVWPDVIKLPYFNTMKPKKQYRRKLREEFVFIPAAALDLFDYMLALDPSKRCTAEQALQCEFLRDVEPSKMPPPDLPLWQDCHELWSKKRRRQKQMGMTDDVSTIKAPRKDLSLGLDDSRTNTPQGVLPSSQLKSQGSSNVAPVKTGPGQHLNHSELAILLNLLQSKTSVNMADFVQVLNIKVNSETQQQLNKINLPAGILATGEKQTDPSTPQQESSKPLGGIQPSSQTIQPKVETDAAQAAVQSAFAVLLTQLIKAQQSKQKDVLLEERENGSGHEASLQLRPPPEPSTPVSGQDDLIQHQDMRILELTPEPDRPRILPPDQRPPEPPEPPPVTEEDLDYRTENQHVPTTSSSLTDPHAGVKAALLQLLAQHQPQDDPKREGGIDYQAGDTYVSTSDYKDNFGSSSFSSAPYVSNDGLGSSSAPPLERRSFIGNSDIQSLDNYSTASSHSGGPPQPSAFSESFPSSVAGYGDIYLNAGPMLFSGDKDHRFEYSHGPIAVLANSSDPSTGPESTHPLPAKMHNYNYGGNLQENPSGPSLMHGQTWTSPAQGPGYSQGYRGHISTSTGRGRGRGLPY

[11] = biological target: PAS domain-containing serine/threonine-protein kinase (Homo sapiens, UniProt Q96RG2)
Chain of PAS domain-containing serine/threonine-protein kinase (Q96RG2 whole entry, the tested form may be a part): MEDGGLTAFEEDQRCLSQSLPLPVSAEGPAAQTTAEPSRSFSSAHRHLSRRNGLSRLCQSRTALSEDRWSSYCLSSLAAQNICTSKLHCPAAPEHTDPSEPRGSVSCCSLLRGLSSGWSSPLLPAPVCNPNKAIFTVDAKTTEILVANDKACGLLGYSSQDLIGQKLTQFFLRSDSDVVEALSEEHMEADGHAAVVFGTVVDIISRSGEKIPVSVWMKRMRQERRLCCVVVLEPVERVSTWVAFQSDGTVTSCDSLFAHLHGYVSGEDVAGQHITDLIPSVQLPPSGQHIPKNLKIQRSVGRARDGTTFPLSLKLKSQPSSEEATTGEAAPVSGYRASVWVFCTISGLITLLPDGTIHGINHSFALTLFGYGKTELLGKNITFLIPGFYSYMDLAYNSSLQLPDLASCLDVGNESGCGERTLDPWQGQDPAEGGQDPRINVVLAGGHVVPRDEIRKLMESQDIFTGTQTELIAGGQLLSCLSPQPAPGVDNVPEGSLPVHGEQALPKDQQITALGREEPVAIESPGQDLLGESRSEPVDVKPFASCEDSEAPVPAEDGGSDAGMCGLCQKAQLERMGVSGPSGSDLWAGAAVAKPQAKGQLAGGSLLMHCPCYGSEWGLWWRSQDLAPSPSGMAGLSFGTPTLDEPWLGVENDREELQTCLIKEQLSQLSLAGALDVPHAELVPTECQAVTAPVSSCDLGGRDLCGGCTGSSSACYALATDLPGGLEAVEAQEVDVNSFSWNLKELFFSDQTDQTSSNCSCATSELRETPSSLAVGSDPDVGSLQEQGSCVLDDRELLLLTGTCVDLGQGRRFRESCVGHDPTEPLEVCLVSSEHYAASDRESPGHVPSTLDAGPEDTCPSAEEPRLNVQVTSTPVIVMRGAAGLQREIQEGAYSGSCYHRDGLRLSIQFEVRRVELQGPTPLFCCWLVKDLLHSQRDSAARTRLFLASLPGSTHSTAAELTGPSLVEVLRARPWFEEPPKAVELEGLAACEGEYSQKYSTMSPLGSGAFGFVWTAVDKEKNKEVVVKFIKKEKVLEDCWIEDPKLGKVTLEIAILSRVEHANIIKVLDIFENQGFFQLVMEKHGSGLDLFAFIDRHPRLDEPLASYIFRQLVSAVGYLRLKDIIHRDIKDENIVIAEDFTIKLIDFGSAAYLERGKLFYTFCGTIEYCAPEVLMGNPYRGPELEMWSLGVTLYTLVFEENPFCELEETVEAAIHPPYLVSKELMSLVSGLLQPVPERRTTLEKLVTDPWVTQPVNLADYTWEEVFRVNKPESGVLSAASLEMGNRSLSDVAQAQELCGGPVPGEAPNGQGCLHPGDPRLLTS

[12] = biological target: T5, Discoidin domain-containing receptor 2 (Homo sapiens, UniProt Q16832)
T5 sequence (Q16832 whole entry): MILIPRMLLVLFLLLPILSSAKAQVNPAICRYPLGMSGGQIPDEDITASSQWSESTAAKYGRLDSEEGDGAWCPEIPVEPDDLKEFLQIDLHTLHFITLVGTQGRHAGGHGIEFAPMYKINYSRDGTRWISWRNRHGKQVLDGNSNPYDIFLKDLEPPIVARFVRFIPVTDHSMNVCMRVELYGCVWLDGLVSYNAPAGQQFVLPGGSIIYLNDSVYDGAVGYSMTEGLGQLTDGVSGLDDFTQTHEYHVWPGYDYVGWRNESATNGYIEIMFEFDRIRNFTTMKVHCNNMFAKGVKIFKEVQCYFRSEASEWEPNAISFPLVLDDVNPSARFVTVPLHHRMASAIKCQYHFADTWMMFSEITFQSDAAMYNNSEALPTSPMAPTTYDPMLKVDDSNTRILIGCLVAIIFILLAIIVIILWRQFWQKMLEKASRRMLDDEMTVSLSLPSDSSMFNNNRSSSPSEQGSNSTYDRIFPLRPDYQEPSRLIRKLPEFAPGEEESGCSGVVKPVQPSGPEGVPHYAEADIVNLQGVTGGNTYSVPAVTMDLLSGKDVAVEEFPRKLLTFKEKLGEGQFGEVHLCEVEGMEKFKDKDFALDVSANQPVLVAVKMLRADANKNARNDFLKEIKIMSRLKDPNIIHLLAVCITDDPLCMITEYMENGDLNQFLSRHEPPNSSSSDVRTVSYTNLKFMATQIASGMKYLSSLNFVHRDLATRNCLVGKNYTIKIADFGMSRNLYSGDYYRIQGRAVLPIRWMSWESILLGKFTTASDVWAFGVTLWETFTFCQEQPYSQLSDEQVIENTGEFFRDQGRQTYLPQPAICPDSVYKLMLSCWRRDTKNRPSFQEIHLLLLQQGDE
Note: in the data inactive means no Kd found up to 30 µM.

Chain of Activated CDC42 kinase 1 (Q07912 whole entry): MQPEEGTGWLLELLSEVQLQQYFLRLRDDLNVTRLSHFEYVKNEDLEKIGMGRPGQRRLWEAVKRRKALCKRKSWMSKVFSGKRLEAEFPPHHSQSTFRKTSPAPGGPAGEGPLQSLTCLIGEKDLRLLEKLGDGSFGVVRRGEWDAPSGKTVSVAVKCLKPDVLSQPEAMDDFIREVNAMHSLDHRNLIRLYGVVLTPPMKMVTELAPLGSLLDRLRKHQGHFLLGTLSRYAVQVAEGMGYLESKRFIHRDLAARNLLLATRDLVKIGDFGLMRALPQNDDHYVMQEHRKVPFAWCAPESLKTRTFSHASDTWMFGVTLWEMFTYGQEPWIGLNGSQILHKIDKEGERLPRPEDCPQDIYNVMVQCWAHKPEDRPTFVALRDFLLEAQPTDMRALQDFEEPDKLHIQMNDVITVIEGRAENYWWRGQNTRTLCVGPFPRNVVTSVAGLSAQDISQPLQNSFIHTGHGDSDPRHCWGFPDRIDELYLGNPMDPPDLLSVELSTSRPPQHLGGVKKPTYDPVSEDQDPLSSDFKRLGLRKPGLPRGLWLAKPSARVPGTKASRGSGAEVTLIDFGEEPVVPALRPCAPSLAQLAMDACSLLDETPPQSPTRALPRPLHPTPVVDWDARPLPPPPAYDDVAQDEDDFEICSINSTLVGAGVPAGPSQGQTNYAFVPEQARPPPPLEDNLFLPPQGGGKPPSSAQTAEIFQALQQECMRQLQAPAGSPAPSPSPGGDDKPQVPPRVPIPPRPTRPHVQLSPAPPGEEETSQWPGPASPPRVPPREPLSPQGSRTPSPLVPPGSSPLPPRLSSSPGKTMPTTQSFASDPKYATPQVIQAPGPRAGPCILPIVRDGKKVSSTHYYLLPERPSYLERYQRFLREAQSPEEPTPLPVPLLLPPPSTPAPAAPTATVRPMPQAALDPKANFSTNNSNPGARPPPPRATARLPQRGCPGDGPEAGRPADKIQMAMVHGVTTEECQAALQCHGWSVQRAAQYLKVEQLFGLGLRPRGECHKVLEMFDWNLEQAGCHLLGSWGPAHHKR

## C[C@@H](N)c1ccc(C(=O)Nc2ccnc3[nH]ccc23)cc1 [Y-39983]
[1]
  Kd: > 30 µM (inactive)
[2]
  Kd: > 30 µM (inactive)
[3]
  Kd: > 30 µM (inactive)
[4]
  Kd: > 30 µM (inactive)
[5]
  Kd: > 30 µM (inactive)
[6]
  Kd: 0.253 µM (active)
[7]
  Kd: > 30 µM (inactive)
[8]
  Kd: > 30 µM (inactive)
[9]
  Kd: > 30 µM (inactive)
[10]
  Kd: > 30 µM (inactive)
[11]
  Kd: > 30 µM (inactive)
[12]
  Kd: > 30 µM (inactive)

## N#CC1(c2ccc(NC(=O)c3cccnc3NCc3ccncc3)cc2)CCCC1 [RIVOCERANIB]
[1]
  Kd: > 30 µM (inactive)
[2]
  Kd: > 30 µM (inactive)
[3]
  Kd: > 30 µM (inactive)
[4]
  Kd: > 30 µM (inactive)
[5]
  Kd: > 30 µM (inactive)
[6]
  Kd: > 30 µM (inactive)
[7]
  Kd: > 30 µM (inactive)
[8]
  Kd: > 30 µM (inactive)
[9]
  Kd: > 30 µM (inactive)
[10]
  Kd: > 30 µM (inactive)
[11]
  Kd: > 30 µM (inactive)
[12]
  Kd: > 30 µM (inactive)

## CO[C@H]1C[C@@H]2CC[C@@H](C)[C@@](O)(O2)C(=O)C(=O)N2CCCC[C@H]2C(=O)O[C@H]([C@H](C)C[C@@H]2CC[C@@H](O)[C@H](OC)C2)CC(=O)[C@H](C)/C=C(\C)[C@@H](O)[C@@H](OC)C(=O)[C@H](C)C[C@H](C)/C=C/C=C/C=C/1C [SIROLIMUS]
[1]
  Kd: > 30 µM (inactive)
[2]
  Kd: > 30 µM (inactive)
[3]
  Kd: > 30 µM (inactive)
[4]
  Kd: > 30 µM (inactive)
[5]
  Kd: > 30 µM (inactive)
[6]
  Kd: > 30 µM (inactive)
[7]
  Kd: > 30 µM (inactive)
[8]
  Kd: > 30 µM (inactive)
[9]
  Kd: > 30 µM (inactive)
[10]
  Kd: > 30 µM (inactive)
[11]
  Kd: > 30 µM (inactive)
[12]
  Kd: > 30 µM (inactive)

## Cc1cc(Nc2ncnc3ccc(NC4=NC(C)(C)CO4)cc23)ccc1Oc1ccn2ncnc2c1 [TUCATINIB]
[1]
  Kd: > 30 µM (inactive)
[2]
  Kd: > 30 µM (inactive)
[3]
  Kd: > 30 µM (inactive)
[4]
  Kd: > 30 µM (inactive)
[5]
  Kd: > 30 µM (inactive)
[6]
  Kd: > 30 µM (inactive)
[7]
  Kd: > 30 µM (inactive)
[8]
  Kd: > 30 µM (inactive)
[9]
  Kd: > 30 µM (inactive)
[10]
  Kd: > 30 µM (inactive)
[11]
  Kd: > 30 µM (inactive)
[12]
  Kd: > 30 µM (inactive)

## O=C(Cc1ccc(-c2ccc(OCCN3CCOCC3)cc2)cn1)NCc1ccccc1 [TIRBANIBULIN]
[1]
  Kd: > 30 µM (inactive)
[2]
  Kd: > 30 µM (inactive)
[3]
  Kd: > 30 µM (inactive)
[4]
  Kd: > 30 µM (inactive)
[5]
  Kd: > 30 µM (inactive)
[6]
  Kd: > 30 µM (inactive)
[7]
  Kd: > 30 µM (inactive)
[8]
  Kd: > 30 µM (inactive)
[9]
  Kd: > 30 µM (inactive)
[10]
  Kd: > 30 µM (inactive)
[11]
  Kd: > 30 µM (inactive)
[12]
  Kd: > 30 µM (inactive)

## COc1cc2ncnc(Oc3cccc(NC(=O)Nc4cc(C(C)(C)C(F)(F)F)on4)c3)c2cc1OC [CEP-32496]
[1]
  Kd: > 30 µM (inactive)
[2]
  Kd: > 30 µM (inactive)
[3]
  Kd: > 30 µM (inactive)
[4]
  Kd: > 30 µM (inactive)
[5]
  Kd: > 30 µM (inactive)
[6]
  Kd: > 30 µM (inactive)
[7]
  Kd: > 30 µM (inactive)
[8]
  Kd: > 30 µM (inactive)
[9]
  Kd: > 30 µM (inactive)
[10]
  Kd: > 30 µM (inactive)
[11]
  Kd: > 30 µM (inactive)
[12]
  Kd: 0.183 µM (active)

## CCS(=O)(=O)N1CCN(c2ccc(Nc3ncc(C(N)=O)c(NC4CC4)n3)cc2)CC1 [Cerdulatinib Hydrochloride]
[1]
  Kd: > 30 µM (inactive)
[2]
  Kd: > 30 µM (inactive)
[3]
  Kd: > 30 µM (inactive)
[4]
  Kd: > 30 µM (inactive)
[5]
  Kd: > 30 µM (inactive)
[6]
  Kd: > 30 µM (inactive)
[7]
  Kd: > 30 µM (inactive)
[8]
  Kd: > 30 µM (inactive)
[9]
  Kd: > 30 µM (inactive)
[10]
  Kd: > 30 µM (inactive)
[11]
  Kd: > 30 µM (inactive)
[12]
  Kd: > 30 µM (inactive)

## Cc1cc(C(=O)NOCCO)c(Nc2ccc(I)cc2F)n(C)c1=O [AZD-8330]
[1]
  Kd: > 30 µM (inactive)
[2]
  Kd: > 30 µM (inactive)
[3]
  Kd: > 30 µM (inactive)
[4]
  Kd: > 30 µM (inactive)
[5]
  Kd: > 30 µM (inactive)
[6]
  Kd: > 30 µM (inactive)
[7]
  Kd: > 30 µM (inactive)
[8]
  Kd: > 30 µM (inactive)
[9]
  Kd: > 30 µM (inactive)
[10]
  Kd: > 30 µM (inactive)
[11]
  Kd: > 30 µM (inactive)
[12]
  Kd: > 30 µM (inactive)

## C#Cc1cccc(Nc2ncnc3cc(OC)c(OCCCCCCC(=O)NO)cc23)c1 [CUDC-101]
[1]
  Kd: > 30 µM (inactive)
[2]
  Kd: > 30 µM (inactive)
[3]
  Kd: > 30 µM (inactive)
[4]
  Kd: > 30 µM (inactive)
[5]
  Kd: > 30 µM (inactive)
[6]
  Kd: > 30 µM (inactive)
[7]
  Kd: > 30 µM (inactive)
[8]
  Kd: > 30 µM (inactive)
[9]
  Kd: > 30 µM (inactive)
[10]
  Kd: > 30 µM (inactive)
[11]
  Kd: > 30 µM (inactive)
[12]
  Kd: > 30 µM (inactive)

## NC1(c2ccc(-c3nc4ccn5c(=O)[nH]nc5c4cc3-c3ccccc3)cc2)CCC1 [MK-2206]
[1]
  Kd: > 30 µM (inactive)
[2]
  Kd: > 30 µM (inactive)
[3]
  Kd: > 30 µM (inactive)
[4]
  Kd: > 30 µM (inactive)
[5]
  Kd: > 30 µM (inactive)
[6]
  Kd: > 30 µM (inactive)
[7]
  Kd: > 30 µM (inactive)
[8]
  Kd: > 30 µM (inactive)
[9]
  Kd: > 30 µM (inactive)
[10]
  Kd: > 30 µM (inactive)
[11]
  Kd: > 30 µM (inactive)
[12]
  Kd: > 30 µM (inactive)

## O=C1NC(=O)[C@@H](c2cn3c4c(cccc24)CCC3)[C@@H]1c1c[nH]c2ccccc12 [TIVANTINIB]
[1]
  Kd: > 30 µM (inactive)
[2]
  Kd: > 30 µM (inactive)
[3]
  Kd: > 30 µM (inactive)
[4]
  Kd: > 30 µM (inactive)
[5]
  Kd: > 30 µM (inactive)
[6]
  Kd: > 30 µM (inactive)
[7]
  Kd: > 30 µM (inactive)
[8]
  Kd: > 30 µM (inactive)
[9]
  Kd: > 30 µM (inactive)
[10]
  Kd: > 30 µM (inactive)
[11]
  Kd: > 30 µM (inactive)
[12]
  Kd: > 30 µM (inactive)
